By Kd is commonly meant the constant that tells how readily two partners part at equilibrium. A higher Kd goes with lower affinity.

Data on 63 molecules can be found in article PMC12037410, “Pharmacological targeting of BMAL1 modulates circadian and immune pathways” (Nature Chemical Biology, 2025).

The target of one experiment is T1, BMAL1 (Homo sapiens, UniProt O00327).
T1 sequence (O00327 338-449): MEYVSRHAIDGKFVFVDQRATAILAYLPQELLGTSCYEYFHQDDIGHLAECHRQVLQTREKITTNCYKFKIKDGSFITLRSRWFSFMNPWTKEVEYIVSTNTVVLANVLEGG
Assay: not given
More on the design: PASB domain (residues 338–449); Protein thermal shift (PTS) fragment screen on recombinant human BMAL1(PASB), shift of melting temperature. The note with it: dTmB; binder.
`CNC(=O)c1ccc(Cl)cc1` [Prestw-Frag-2018, Compound 319]: the “Bmal1(PASB) dTmB” value is -0.45 °C.

`OC1c2ccccc2CCc2ccccc21` [Prestw-Frag-2600, Compound 464]: the “Bmal1(PASB) dTmB” value was -1.43 °C.

Consider `O=c1[nH]c2ccccc2n1C1CCNCC1` [Prestw-Frag-1587, Compound 407], for which the “Bmal1(PASB) dTmB” value is -0.86 °C.

Take `c1ccc(-c2nn[nH]n2)cc1` [Prestw-Frag-2887, Compound 426]: the “Bmal1(PASB) dTmB” value is 0.51 °C.

Turning to `Oc1ccc(Cc2ccccc2)cc1` [Prestw-Frag-3455, Compound 469], the “Bmal1(PASB) dTmB” value is -2.61 °C.

Turning to `Cc1ccc(S(=O)(=O)NC(N)=O)cc1` [Prestw-Frag-1667, Compound 248], the “Bmal1(PASB) dTmB” value is 0.07 °C.

Turning to `O=C(O)C(c1ccccc1)c1ccccc1` [Prestw-Frag-3711, Compound 127], the “Bmal1(PASB) dTmB” value is -0.11 °C.

Consider `c1ccc(-n2ccc3ccccc32)cc1` [Prestw-Frag-3011, Compound 447], for which the “Bmal1(PASB) dTmB” value was -0.07 °C.

Take `COc1ccc(N2CCN(c3ccc(N)cc3)CC2)cc1` [Prestw-Frag-1557, Compound 35]: the “Bmal1(PASB) dTmB” value came to 0.19 °C.

`OC(c1ccccc1)(c1ccccc1)C1CCNCC1` [Prestw-Frag-1654, Compound 403]: the “Bmal1(PASB) dTmB” value is -1.27 °C.

As to `O=C(O)COc1ccccc1` [Prestw-Frag-2577, Compound 147], the “Bmal1(PASB) dTmB” value was 0.25 °C.

Take `CS(=O)(=O)Nc1ccccc1` [Prestw-Frag-2755, Compound 281]: the “Bmal1(PASB) dTmB” value was -0.10 °C.

For the molecule `COc1ccc(CCN(C)C)cc1OC` [Prestw-Frag-1445, Compound 247], the “Bmal1(PASB) dTmB” value is -0.12 °C.

Consider `Nc1ccccc1S(N)(=O)=O` [Prestw-Frag-2473, Compound 242], for which the “Bmal1(PASB) dTmB” value was 0.04 °C.

For the molecule `O=C1COCCN1` [Prestw-Frag-3463, Compound 118], the “Bmal1(PASB) dTmB” value was -0.27 °C.

`NC(N)=NC(N)=Nc1ccc(Cl)cc1` [Prestw-Frag-2722, Compound 143]: the “Bmal1(PASB) dTmB” value was -0.89 °C.

With `O=c1cc(O)c2ccccc2o1` [Prestw-Frag-1131, Compound 301], the “Bmal1(PASB) dTmB” value is 0.28 °C.

Regarding `CNC(=O)c1cnc(C)cn1` [Prestw-Frag-1350, Compound 286], the “Bmal1(PASB) dTmB” value stood at 0.06 °C.

Regarding `NCCc1ccc(F)cc1F` [Prestw-Frag-3746, Compound 138], the “Bmal1(PASB) dTmB” value is -0.34 °C.

Take `O=c1[nH]nc2ccccn12` [Prestw-Frag-1673, Compound 287]: the “Bmal1(PASB) dTmB” value was -1.05 °C.

As for `CN1CCC[C@H]1c1cccnc1` [Prestw-Frag-1187, Compound 13], the “Bmal1(PASB) dTmB” value is -0.52 °C.

In the case of `Cc1cn(-c2cc(N)cc(C(F)(F)F)c2)cn1` [Prestw-Frag-3241, Compound 458], the “Bmal1(PASB) dTmB” value is -2.09 °C.

Take `Clc1ccc(C(c2ccccc2)N2CCNCC2)cc1` (stereo not drawn) [Prestw-Frag-1741, Compound 476]: the “Bmal1(PASB) dTmB” value was -4.68 °C.

Take `CNS(=O)(=O)Cc1ccc2[nH]cc(CCN)c2c1` [Prestw-Frag-3017, Compound 50]: the “Bmal1(PASB) dTmB” value stood at 0.72 °C.

`Cc1cnc(C(=O)O)cn1` [Prestw-Frag-1494, Compound 98]: the “Bmal1(PASB) dTmB” value was 0.14 °C.

In the case of `COc1ccccc1OCCO` [Prestw-Frag-1338, Compound 363], the “Bmal1(PASB) dTmB” value amounted to 0.76 °C.

`COc1cc2ccncc2cc1OC` [Prestw-Frag-1183, Compound 290]: the “Bmal1(PASB) dTmB” value is -1.26 °C.

As to `CCOc1ccccn1` [Prestw-Frag-2477, Compound 94], the “Bmal1(PASB) dTmB” value is -0.05 °C.

Regarding `CCN(CC)CCNC(=O)c1ccc(N)c(Cl)c1` [Prestw-Frag-3120, Compound 278], the “Bmal1(PASB) dTmB” value was -0.15 °C.

As to `Cn1c(=O)[nH]c2nc[nH]c2c1=O` [Prestw-Frag-1138, Compound 38], the “Bmal1(PASB) dTmB” value is -0.59 °C.

For `NS(=O)(=O)c1ccc(C(=O)O)cc1` [Prestw-Frag-2123, Compound 82], the “Bmal1(PASB) dTmB” value is -0.15 °C.

As for `COc1ccc2nc[nH]c2c1` [Prestw-Frag-3678, Compound 41], the “Bmal1(PASB) dTmB” value is -0.91 °C.

`Cn1ccccc1=O` [Prestw-Frag-2410, Compound 227]: the “Bmal1(PASB) dTmB” value was -0.12 °C.

`OCc1ccc(O)cc1` [Prestw-Frag-2532, Compound 453]: the “Bmal1(PASB) dTmB” value is -0.16 °C.

As for `c1ccc2[nH]c(CN3CCCC3)nc2c1` [Prestw-Frag-1164, Compound 180], the “Bmal1(PASB) dTmB” value was -0.18 °C.

For the molecule `COC(=O)C(CO)c1ccccc1` (stereo not drawn) [Prestw-Frag-1406, Compound 266], the “Bmal1(PASB) dTmB” value was -0.21 °C.

For `CCC(=O)NC1=NC=NC2=NC=NC21` (stereo not drawn) [Prestw-Frag-1047, Compound 47], the “Bmal1(PASB) dTmB” value was -0.65 °C.

With `CC(O)(c1ccccc1)c1ccccc1` [Prestw-Frag-2235, Compound 444], the “Bmal1(PASB) dTmB” value is -1.59 °C.

With `COc1ccc2[nH]cc(CCN)c2c1` [Prestw-Frag-1480, Compound 3], the “Bmal1(PASB) dTmB” value turned out to be 3.24 °C.

For the molecule `CCCC(=O)Nc1cccc(C(C)=O)c1` [Prestw-Frag-1717, Compound 428], the “Bmal1(PASB) dTmB” value was -0.30 °C.

As for `Oc1cccc2[nH]ccc12` [Prestw-Frag-3696, Compound 12], the “Bmal1(PASB) dTmB” value was -0.70 °C.

Consider `Nc1cccc(O)c1` [Prestw-Frag-2826, Compound 83], for which the “Bmal1(PASB) dTmB” value was -0.56 °C.

Take `CS(=O)(=O)NC(Cc1ccccc1)C(=O)O` (stereo not drawn) [Prestw-Frag-3362, Compound 137]: the “Bmal1(PASB) dTmB” value was 0.29 °C.

With `NCCCCc1ccccc1` [Prestw-Frag-1031, Compound 371], the “Bmal1(PASB) dTmB” value was -0.34 °C.

In the case of `Oc1ccccc1OCC(F)(F)F` [Prestw-Frag-3225, Compound 113], the “Bmal1(PASB) dTmB” value is -0.44 °C.

On to `CN1CCN(C(c2ccccc2)c2ccccc2)CC1` [Prestw-Frag-1325, Compound 405], for which the “Bmal1(PASB) dTmB” value was -0.51 °C.

For `CCN1CCCC1CN` (stereo not drawn) [Prestw-Frag-3671, Compound 99], the “Bmal1(PASB) dTmB” value is -0.56 °C.

Regarding `O=C(NCc1cccnc1)c1ccc(O)cc1` [Prestw-Frag-1747, Compound 457], the “Bmal1(PASB) dTmB” value is -0.46 °C.

Take `COc1ccc(OCC(N)=O)cc1` [Prestw-Frag-1812, Compound 300]: the “Bmal1(PASB) dTmB” value came out at 0.07 °C.

`COc1ccc(N)nn1` [Prestw-Frag-1167, Compound 140]: the “Bmal1(PASB) dTmB” value is -0.58 °C.

Regarding `c1ncc(C2CCNCC2)[nH]1` [Prestw-Frag-3753, Compound 303], the “Bmal1(PASB) dTmB” value is -0.23 °C.

As for `OC(c1ccc(F)cc1)c1ccc(F)cc1` [Prestw-Frag-1924, Compound 461], the “Bmal1(PASB) dTmB” value was -1.89 °C.

Take `CCN(CC)CCOC(=O)C1(c2ccccc2)CCCC1` [Prestw-Frag-2774, Compound 413]: the “Bmal1(PASB) dTmB” value was -1.85 °C.

In the case of `COc1ccc(CC(=O)O)cc1` [Prestw-Frag-2960, Compound 158], the “Bmal1(PASB) dTmB” value was 0.16 °C.

Turning to `COc1ccc2c(c1)CCCC2` [Prestw-Frag-3188, Compound 32], the “Bmal1(PASB) dTmB” value is -0.52 °C.

In the case of `c1ccc(C(c2ccccc2)n2ccnc2)cc1` [Prestw-Frag-2868, Compound 465], the “Bmal1(PASB) dTmB” value was -6.29 °C.

As for `O=[N+]([O-])c1ccc(CO)cc1` [Prestw-Frag-1071, Compound 105], the “Bmal1(PASB) dTmB” value is -0.41 °C.

Take `COc1ccc(C(=O)O)cc1N1CCCC1` [Prestw-Frag-1313, Compound 40]: the “Bmal1(PASB) dTmB” value was -0.37 °C.

With `Cc1ccc(S(N)(=O)=O)cc1` [Prestw-Frag-1894, Compound 198], the “Bmal1(PASB) dTmB” value was -0.38 °C.

Turning to `CNS(=O)(=O)CCc1ccccc1` [Prestw-Frag-3368, Compound 97], the “Bmal1(PASB) dTmB” value was -0.29 °C.

Consider `c1ccc(CCn2ccnc2)cc1` [Prestw-Frag-2608, Compound 366], for which the “Bmal1(PASB) dTmB” value is -0.49 °C.

Still in this experiment, the particulars now being: dTmB; binder; Bmal1(PASB) dTmB.
Regarding `CC1=NN(c2ccccc2)C(=O)C1` [Prestw-Frag-3742, Compound 81], the “Bmal1(PASB) dTmB” value was found to be 1.77 °C.

For another experiment, the target named is T1, BMAL1. Put plainly: ITC; also crystal structure ([…] Å), SPR (Kd […]), PTS (ΔTm […] °C), CETSA (EC50 […]).
Conditions: not given
More on the design: PASB domain (338–449 amino acids). It counts as binding. On the technique in general: In ITC the heat of successive injections is recorded.
For `CCc1ccc(OCC(F)CO)c2occc12` (racemic) [compound 4, CCM], binding was characterised by a dissociation constant (Kd) of 1990 ± 380 nM.
